According to patent US9522903B2 (priority 2010, dated 2016):

Tests used:
[1] = system: murine model of renal ischemia-reperfusion injury; parameters: species or system mice; conditions: mouse, in vivo
[2] = mouse, in vivo, ip
[3] = system: rat model of myocardial ischemia-reperfusion injury (MIRI); conditions: in vivo
[4] = system: rat vascular ring system precontracted with norepinephrine

In the case of “2-cyano-1-(1-hydroxy-2,2,5,5-tetramethylpyrrolidin-3-yl)-3-(pyridin-3-yl)guanidine [compound 2]”, the “elevation in plasma blood urea nitrogen (BUN)” value [1] is reported as “profoundly attenuated”, the “elevation in plasma creatinine” value [1] is reported as “profoundly attenuated” and the “elevation in renal myeloperoxidase (MPO)” value [1] is reported as “profoundly attenuated”. The “protection against severe renal tubular necrosis (histologic studies)” value [1] was “near total protection”, the “effect on blood glucose levels compared with saline vehicle group” value [2] was “did not exhibit any significant effect” and the “histologic features of injury (myocyte necrosis, edema, neutrophil infiltration)” value [3] was “profoundly attenuated virtually all histologic features of injury”. The “mean arterial pressure (systemic hypotension)” value [3] was “did not produce systemic hypotension”, the “myocardial myeloperoxidase (MPO)” value [3] was “significantly reduced” and the “tissue infarction (infarct size)” value [3] was “significantly reduced”. For the same substance, the “ED50 (ex vivo vasodilator potency) compared to pinacidil” value [4] was “one log greater than that of pinacidil”.
